{"source": "patent US7625887B2", "about": "“Receptor agonists” (Takeda Pharmaceutical Company Limited, priority 2003, dated 2009)", "key": {"[1]": {"tested_on": "guinea pig peripheral blood mononuclear cells", "test": "IL-6 secretion in LPS-stimulated guinea pig peripheral blood mononuclear cells", "format": "cell-based", "details": "16 hrs, bile acid 50 μM; non-addition: 520 with LPS, 32 without", "method": "(§1) The peripheral blood was taken from guinea pig, and mononuclear cell fraction was obtained by a density separation method using Ficoll-Paque PLUS (Amersham Pharmacia). The fraction at a concentration of 1×10^5/well was cultured for 16 hrs in the presence of […] LPS in a 96-well plate upon addition of bile acid or a test compound. The culture supernatant was collected and TNF and IL-6 in the supernatant were quantitated.\nThe quantitation of IL-6 in the culture supernatant was performed using IL-6 dependent cell line 7TD1 (RIKEN Institute) with its growth promoting action as an index. First, 7TD1 cells were suspended in a basic medium (RPMI1640 (Invitrogen) supplemented with 1% non-essential amino acid (Invitrogen) and 55 μM 2-mercaptoethanol (Invitrogen)) and seeded in a 96-well plate at a concentration of 2×10^3/well. Immediately after seeding, peripheral blood mononuclear cell culture supernatant diluted with a dilution medium (the above-mentioned basic medium supplemented with 10% FBS) was added and the cells were cultured for 2 days. The IL-6 content was determined by measuring the growth of the 7TD1 cells in the obtained culture product using a CellTiter-Glo (Promega). As the standard sample, human recombinant IL-6 (Genzyme) was used."}, "[2]": {"tested_on": "THP-TGR5 cells", "test": "suppression of LPS induced TNF α secretion in THP-TGR5 cells", "format": "cell-based, human", "details": "bile acid 50 μM, non-addition: 11 with LPS, 2.7 without LPS", "method": "TGR5 high expression cells were established by introducing TGR5 gene into human macrophage cells line THP-1. According to a conventional method, pcDNA-TGR5 incorporating cDNA of human TGR5 in pcDNA3.1 (Invitrogen) was prepared. Then, THP-1 was cultured in a medium (RPMI1640 10% FBS), and pcDNA-TGR5 was introduced thereinto using lipofectamine (Gibco BRL) according to conventional methods. Thereafter, G418 (Gibco BRL) was added to the medium to select resistant strains, and cells line, THP-TGR5 that expresses TGR5 stably and highly was established.\nTHP-TGR5 thus obtained was diluted to a concentration of 1×10^5/well and cultured overnight in a 96 well plate in the presence of 10^−8M phorbol ester (Wako Pure Chemical Industries, Ltd.). THP-TGR5 after culture was cultured for 1 hr in a medium containing a test compound or a control medium (0.1 ml) free of a test compound, 0.1 ml of a medium containing the same concentration of the test compound or a control medium free of the test compound, each of which containing LPS for induction of TNF α secretion was added (concentration at the time of addition 50 ng/ml) and the mixture was incubated at 37° C. under 5% CO2 for 14 hrs. The culture supernatant was collected and the TNF α content was measured with the growth suppressing effect on the TNF sensitive cell line L929 (RIKEN Institute) as an index.\nL929 cells were seeded in a 96 well plate at 1.2×10^4/well and incubated overnight at 37° C. under 5% CO2. The obtained culture product was cultured overnight in a medium (phenol red free Dulbecco's Modified Eagle Medium (Invitrogen) supplemented with 10% fetal bovine serum (Invitrogen), 100 U/ml penicillin and 100 μg/ml streptomycin), which contained the aforementioned THP-TGR5-containing culture supernatant and 2 μg/ml Actinomycin D (Wako Pure Chemical Industries, Ltd.). The TNF α content was determined by measuring the growth of the L929 cells in the obtained culture product using a Cell Counting Kit-8 (Wako Pure Chemical Industries, Ltd.). As the standard sample, human recombinant TNF α (Genzyme) was used."}, "[3]": {"tested_on": "guinea pig peripheral blood mononuclear cells", "test": "TNF secretion in LPS-stimulated guinea pig peripheral blood mononuclear cells", "format": "cell-based", "details": "16 hrs, bile acid 50 μM; non-addition: 160 with LPS, 13 without", "method": "as §1\nThe TNF secretion amount in the culture supernatant was measured in the same manner as in Experimental Example 7."}, "[4]": {"tested_on": "NCI-H716 cells", "test": "GLP-1 secretion from NCI-H716 cell line", "format": "cell-based, human", "details": "bile acid 25 μM, 2 hrs; secretion amount in Base was 100%", "method": "NCI-H716 cells secrete Glucagon-like peptide-1 (GLP-1). GLP-1 is a peptide useful for controlling blood glucose level because it acts on the pancreas to cause secretion of insulin and the like. In the same manner as in Experimental Example 9, NCI-H716 (ATCC) was seeded in a 96 well plate and, after incubation for 2 days, used for the following secretion test. As a buffer for secretion test, modified Krebs-Ringer bicarbonate buffer (KRBH, 116 mM NaCl, 4.7 mM KCl, 1.2 mM KH2PO4, 1.2 mM MgSO4, 2.5 mM CaCl2, 25 mM NaHCO3, 24 mM HEPES, pH 7.3) supplemented with glucose 5.5 mM and BSA 0.1% was used. The cells were washed once with the buffer for secretion test, preincubated at 37° C. under 5% CO2, bile acid diluted with the buffer for secretion test was added and the cells were cultured at 37° C. under 5% CO2 for 2 hrs. The cell culture supernatant was collected, cryopreserved and the GLP-1 content in the supernatant was measured using a GLP-1 measurement EIA kit (Linco) The results are shown in Table 9. In the Table, Base means non-addition of a test compound."}, "[5]": {"tested_on": "guinea pig intestine primary culture cells", "test": "GLP-1 secretion from guinea pig intestine primary culture cells", "format": "cell-based", "details": "bile acid 50 μM, 90 min", "method": "Colon mucous membrane of guinea pig (Hartley, male, Charles River Japan, Inc.) was removed and subjected to an enzyme treatment to give a cell dispersion according to the following method.\nThe enzyme solution used was obtained by dissolving 5 mg/ml Collagenase (Sigma), 5 mg/ml Hyaluronidase (Sigma) and 0.5 mg/ml DNaseI (Sigma) in a medium. The medium used was Dulbecco's Modified Eagle Medium (DMEM, Invitrogen) supplemented with 4.5 g/l Glucose, 5% FBS (Invitrogen), 100 units/ml Penicillin (Invitrogen), 100 μg/ml Streptomycin (Invitrogen), 50 μg/ml Gentamicin (Invitrogen) and 20 mM Hepes (pH 7.3). After digestion by the enzyme solution at 37° C., the tissue sections were prepared into dispersed cells by passing through a pipette 4 times and the cells were collected. The collected cells were washed with a buffer (incubation buffer) obtained by adding 5.5 mM Glucose and 0.1% BSA to a modified Krebs-Ringer bicarbonate buffer (KRBH, 116 mM NaCl, 4.7 mM KCl, 1.2 mM KH2PO4, 1.2 MM MgSO4, 2.5 mM CaCl2, 25 mM NaHCO3, 24 mM HEPES, pH 7.3), and preincubated at 37° C. under 5% CO2 for 30 min. 0.1 μM Phorbol ester (Wako), 1% DPPIV inhibitor (Linco) and a test compound were added to the above-mentioned incubation buffer, and the obtained buffer was added to the cells after the aforementioned preincubation and incubated for 90 min. The culture supernatant was collected and cryopreserved. The concentration of GLP-1 released in the culture supernatant was measured using an ELISA kit (Linco)."}}, "data": [{"smiles": "C[C@H](CCC(=O)NCCS(=O)(=O)O)[C@H]1CC[C@H]2[C@@H]3CC[C@@H]4C[C@H](O)CC[C@]4(C)[C@H]3CC[C@]12C", "note": "[TLCA, taurolithocholic acid, reference compound]", "values": [{"measurement": "IL-6", "setting": "[1]", "value": 260, "unit": "pg/mL"}, {"measurement": "TNF α", "setting": "[2]", "value": 0.22, "unit": "ng/mL"}, {"measurement": "TNF α", "setting": "[3]", "value": 60, "unit": "pg/mL"}, {"measurement": "GLP-1 secretion increase (%)", "setting": "[4]", "value": 124, "unit": "%"}, {"measurement": "GLP-1 (% relative to non-addition)", "setting": "[5]", "value": "400 % relative to non-addition"}]}]}
